Results from US9828342B2, “Isatin derivatives, pharmaceutical compositions thereof, and methods of use thereof” (CITY OF HOPE, priority 2012, dated 2017).
Where two headings read alike, the source gives them in different places. Values belong to the compound of their own block, whether it stands above or below them.

What was measured:
Format in all cases: cell-based
[1] = system: DU145 prostate cancer cells; assay: MTS cell viability assay in DU145 prostate cancer cells
Procedure: (§1) Then, MTS assays for cell viability were carried out to determine the IC50 values. Four samples were tested for each isatin derivative at each concentration in each cell line, and the averaged data were shown in Table 2a and FIGS. 1˜4.
(§2) IC50 of values of isatin derivatives Compounds 101˜123 were determined in cancer cell lines DU145 and A2058 respectively.

[2] = system: A2058 human melanoma cells; assay: MTS cell viability assay in A2058 melanoma cells
Procedure: as §1, §2

[3] = system: A2780 cisplatin-resistant ovarian cancer cells; assay: MTS cell viability assay in A2780 cisplatin-resistant ovarian cancer cells; conditions: Homo sapiens, A2780, 48 h, A2780 cisplatin-resistant, 48 hr, 1% DMSO, MTS
Procedure: (§3) Each type of cells (5,000 or 10,000 cells/well) were treated with different concentration (0.1 μM to 20 μM in 1% DMSO of cisplatin or Compound 2, 9, 12, 16 or 22 respectively for 48 hr). Then, MTS assays for cell viability were carried out to determine the IC50 values. Four samples were tested for each test compound at each concentration for each type of cells, and the averaged data were shown in Table 4 and FIGS. 6-8.

[4] = system: OVCAR5 ovarian cancer cells; assay: MTS cell viability assay in OVCAR5 ovarian cancer cells; conditions: Homo sapiens, OVCAR-5, OVCAR5, 48 hr, 1% DMSO
Procedure: as §3

[5] = Homo sapiens, DU-145, 48 h, DU145, compound in DMSO, 48 hr, MTS (Table 2b), read-out: IC50 value, DMSO, DU145
[6] = Homo sapiens, A2058, 48 h, A2058, compound in DMSO, 48 hr, MTS (Table 2b), read-out: IC50 value, DMSO, A2058
[7] = Homo sapiens, DU-145, 48 h, DU145, 48 hr, 0.05 to 10 μM in 1% DMSO, MTS (Table 2a), read-out: DU145 IC50
[8] = Homo sapiens, A2058, 48 h, 0.05 to 10 μM in 1% DMSO, MTS (Table 2a), read-out: A2058 IC50
[9] = DU145, compound in DMSO, 48 hr, MTS (Table 2b), read-out: IC50 value, DMSO, DU145
[10] = Homo sapiens, DU-145, 48 h, DU145, compound in water, 48 hr, MTS (Table 2b), read-out: IC50 value, Water, DU145
[11] = A2058, compound in DMSO, 48 hr, MTS (Table 2b), read-out: IC50 value, DMSO, A2058
[12] = Homo sapiens, A2058, 48 h, A2058, compound in water, 48 hr, MTS (Table 2b), read-out: IC50 value, Water, A2058

- IC50 [1, 5]: 2100 nM
- IC50 [2, 6]: 2200 nM
Compound: O=C1C(=O)N(C/C=C/c2ccccc2)c2ccc(-c3cccc([N+](=O)[O-])c3)cc21 [Compound 101]

- IC50 [1, 7]: > 5000 nM
- IC50 [2, 8]: > 5000 nM
Compound: O=C1C(=O)N(CCO)c2ccc(-c3cccnc3)cc21 [Compound 10]

- IC50 [1, 5]: 740 nM
- IC50 [2, 6]: 1400 nM
Compound: O=C1C(=O)N(C/C=C/c2ccncc2)c2ccc(-c3cccnc3)cc21 [Compound 106]

- IC50 [1, 7]: 4100 nM
- IC50 [2, 8]: 1900 nM
Compound: O=C1C(=O)N(Cc2ccccc2)c2ccc(-c3ccccc3)cc21 [Compound 32]

- IC50 [1, 7]: > 5000 nM
- IC50 [2, 8]: 3200 nM
Compound: CC(C)c1ccc2c(c1)C(=O)C(=O)N2CCCc1ccccc1 [Compound 21]

- IC50 [1, 9]: 600 nM
- IC50 [1, 10]: 2300 nM
- IC50 [2, 11]: 380 nM
- IC50 [2, 12]: 800 nM
Compound: O=C1C(=O)N(Cc2ccc(-c3cccnc3)cc2)c2ccc(-c3cccnc3)cc21 [Compound 123]

- IC50 [1, 10]: > 5000 nM
- IC50 [2, 12]: > 5000 nM
Compound: CCN(CCN1C(=O)C(=O)c2cc(-c3cccnc3)ccc21)c1ccccc1 [Compound 113]

- IC50 [1, 5]: > 5000 nM
- IC50 [2, 6]: 3300 nM
Compound: O=C1C(=O)N(Cc2ccccc2-c2cccnc2)c2ccc(-c3cccnc3)cc21 [Compound 118]

- IC50 [1, 7]: 260 nM
- IC50 [2, 8]: 350 nM
Compound: O=C1C(=O)N(C/C=C/c2ccccc2)c2ccc(-c3cccnc3F)cc21 [Compound 31]

- IC50 [1, 7]: 2500 nM
- IC50 [2, 8]: 2300 nM
Compound: O=C1C(O)c2cc(-c3cccnc3)ccc2N1Cc1ccccc1 (stereo not shown) [Compound 13, N-Benzyl-3-hydroxy-5-(pyridin-3-yl)indoline-2-one]

- IC50 [1, 7]: > 5000 nM
- IC50 [2, 8]: > 5000 nM
Compound: O=C1C(=O)N(CCOCCO)c2ccc(-c3cccnc3)cc21 [Compound 11]

- IC50 [1, 9]: 910 nM
- IC50 [2, 11]: 2100 nM
Compound: O=C1C(=O)N(CCCc2cccnc2)c2ccc(-c3cccnc3)cc21 [Compound 104]

Compound: C[Si](C)(C)CCOCN1C(=O)C(=O)c2cc(I)ccc21 [Compound 6]
- IC50 ([1]; Homo sapiens, DU-145, DU145, 48 hr, 0.05 to 10 μM in 1% DMSO, MTS (Table 2a), read-out: DU145 IC50): 4600 nM
- IC50 ([2]; Homo sapiens, A2058, 48 hr, 0.05 to 10 μM in 1% DMSO, MTS (Table 2a), read-out: A2058 IC50): 6900 nM

- IC50 [1, 7]: 330 nM
- IC50 [2, 8]: 300 nM
Compound: O=C1C(=O)N(C/C=C/c2ccccc2)c2ccc(-c3ccc(F)nc3)cc21 [Compound 29]

- IC50 [1, 5]: 1000 nM
- IC50 [2, 6]: 650 nM
Compound: O=C1C(=O)N(C/C=C/c2ccc3ccccc3n2)c2ccc(-c3cccnc3)cc21 [Compound 114]

- IC50 [1, 5]: 580 nM
- IC50 [2, 6]: 380 nM
Compound: O=C1C(=O)N(Cc2ccc(-c3cccnc3)cc2)c2ccc(-c3cccnc3)cc21 [Compound 122]

- IC50 [1, 5]: 450 nM
- IC50 [2, 6]: 500 nM
Compound: O=C1C(=O)N(C/C=C/c2cccnc2)c2ccc(-c3cccnc3)cc21 [Compound 108]

- IC50 [1, 5]: 470 nM
- IC50 [2, 6]: 580 nM
Compound: O=C1C(=O)N(C/C=C/c2ccccn2)c2ccc(-c3cccnc3)cc21 [Compound 110]

- IC50 [1, 7]: 4200 nM
- IC50 [2, 8]: 5900 nM
Compound: O=C1C(=O)N(CCCc2ccccc2)c2ccc(-c3ccccc3)cc21 [Compound 23]

- IC50 [1, 7]: > 5000 nM
- IC50 [2, 8]: > 5000 nM
Compound: O=C1/C(=N/O)c2cc(-c3cccnc3)ccc2N1Cc1ccccc1 [Compound 33]

- IC50 [1, 7]: 530 nM
- IC50 [2, 8]: 700 nM
Compound: O=C1C(=O)N(CCCc2ccccc2)c2ccc(-c3cncnc3)cc21 [Compound 26]

- IC50 [1, 7]: 4300 nM
- IC50 [2, 8]: 4200 nM
Compound: CN1C(=O)C(=O)c2cc(-c3cccnc3)ccc21 [Compound 7]

- IC50 [1, 7]: > 5000 nM
- IC50 [2, 8]: > 5000 nM
Compound: Cc1ccc2c(c1)C(=O)C(=O)N2CCCc1ccccc1 [Compound 19]

- IC50 [1, 7]: 910 nM
- IC50 [2, 8]: 2000 nM
- IC50 [3]: 900 nM
- IC50 [4]: 2200 nM
Compound: O=C1C(=O)N(Cc2cccs2)c2ccc(-c3cccnc3)cc21 [Compound 12, N-(2-Thienylmethyl)-5-(pyridin-3-yl)indoline-2,3-dione]

Compound: CC(=O)OC1C(=O)N(Cc2ccccc2)c2ccc(-c3cccnc3)cc21 (stereo not shown) [Compound 14, 3-Acetoxy-N-Benzyl-5-(pyridin-3-yl)indoline-2-one]
- IC50 [1, 7]: > 5000 nM
- IC50 [2, 8]: > 5000 nM

- IC50 [1, 9]: 4100 nM
- IC50 [2, 11]: 3700 nM
Compound: O=C1C(=O)N(Cc2ccccn2)c2ccc(-c3cccnc3)cc21 [Compound 102]

- IC50 [1, 9]: 2500 nM
- IC50 [1, 10]: 4600 nM
- IC50 [2, 11]: 4800 nM
- IC50 [2, 12]: 4700 nM
Compound: O=C1C(=O)N(CCCc2cccnc2)c2ccc(-c3cccnc3)cc21 [Compound 105]

- IC50 [1, 7]: 8500 nM
- IC50 [2, 8]: 8400 nM
Compound: O=C1C(=O)N(Cc2ccccc2)c2cc(Br)ccc21 [Compound 3, N-benzyl-6-bromoindoline-2,3-dione]

- IC50 [1, 9]: 960 nM
- IC50 [1, 10]: 740 nM
- IC50 [2, 11]: 2000 nM
- IC50 [2, 12]: 1600 nM
Compound: O=C1C(=O)N(C/C=C/c2ccncc2)c2ccc(-c3cccnc3)cc21 [Compound 107]

- IC50 [1, 9]: 2300 nM
- IC50 [1, 10]: 4100 nM
- IC50 [2, 11]: 1200 nM
- IC50 [2, 12]: 1900 nM
Compound: O=C1C(=O)N(Cc2cccc(-c3cccnc3)c2)c2ccc(-c3cccnc3)cc21 [Compound 120]

- IC50 [1, 7]: > 10000 nM
- IC50 [2, 8]: > 10000 nM
Compound: O=C1C(=O)N(Cc2ccccc2)c2cccc(Br)c21 [Compound 5]

- IC50 [1, 5]: 660 nM
- IC50 [2, 6]: 390 nM
Compound: O=C1C(=O)N(C/C=C/c2cccnc2Cl)c2ccc(-c3cccnc3)cc21 [Compound 116]

- IC50 [1, 7]: 900 nM
- IC50 [2, 8]: 1800 nM
- IC50 [3]: 500 nM
- IC50 [4]: 1700 nM
Compound: O=C1C(=O)N(Cc2ccsc2)c2ccc(-c3cccnc3)cc21 [Compound 16, N-(3-Thienylmethyl)-5-(pyridin-3-yl)indoline-2,3-dione]

- IC50 [1, 7]: > 10000 nM
- IC50 [2, 8]: > 10000 nM
Compound: O=C1C(=O)N(Cc2ccccc2)c2cc(-c3ccccc3)ccc21 [Compound 1]

- IC50 [1, 9]: 1400 nM
- IC50 [1, 10]: 1900 nM
- IC50 [2, 11]: 680 nM
- IC50 [2, 12]: 1900 nM
Compound: O=C1C(=O)N(C/C=C/c2ccc3ccccc3n2)c2ccc(-c3cccnc3)cc21 [Compound 115]

- IC50 [1, 9]: 480 nM
- IC50 [1, 10]: 500 nM
- IC50 [2, 11]: 580 nM
- IC50 [2, 12]: 840 nM
Compound: O=C1C(=O)N(C/C=C/c2ccccn2)c2ccc(-c3cccnc3)cc21 [Compound 111]

- IC50 [1, 7]: 1500 nM
- IC50 [2, 8]: 2000 nM
Compound: O=C1C(=O)N(CCCc2ccccc2)c2ccc(-c3ccco3)cc21 [Compound 25]

- IC50 [1, 7]: 5000 nM
- IC50 [2, 8]: > 5000 nM
Compound: O=C1C(=O)N(CCc2ccccc2)c2ccc(-c3cccnc3)cc21 [Compound 8]

- IC50 [1, 5]: 2300 nM
- IC50 [2, 6]: 1400 nM
Compound: O=C1C(=O)N(Cc2cccc(-c3cccnc3)c2)c2ccc(-c3cccnc3)cc21 [Compound 119]

- IC50 [1, 5]: 3400 nM
- IC50 [2, 6]: 1900 nM
Compound: O=C1C(=O)N(Cc2ccccc2I)c2ccc(-c3cccnc3)cc21 [Compound 117]

- IC50 [1, 7]: 1300 nM
- IC50 [2, 8]: 1600 nM
Compound: O=C1C(=O)N(CCCc2ccccc2)c2ccc(-c3ccncc3)cc21 [Compound 28]

- IC50 [1, 7]: 360 nM
- IC50 [2, 8]: 400 nM
Compound: O=C1C(=O)N(C/C=C/c2ccccc2)c2ccc(-c3cncnc3)cc21 [Compound 27]

- IC50 [1, 7]: > 5000 nM
- IC50 [2, 8]: > 5000 nM
Compound: O=C1Cc2cc(-c3cccnc3)ccc2N1Cc1ccccc1 [Compound 15, N-Benzyl-5-(pyridin-3-yl)indoline-2-one]

- IC50 [1, 7]: 2400 nM
- IC50 [2, 8]: 3800 nM
Compound: O=C1C(=O)N(Cc2ccccc2)c2ccc(I)cc21 [Compound 4, N-benzyl-5-iodoindoline-2,3-dione]

- IC50 [1, 7]: 870 nM
- IC50 [2, 8]: 1400 nM
Compound: O=C1C(=O)N(C/C=C/c2ccccc2)c2ccc(-c3ccsc3)cc21 [Compound 30]

- IC50 [1, 5]: > 5000 nM
- IC50 [2, 6]: > 5000 nM
Compound: CCN(CCN1C(=O)C(=O)c2cc(-c3cccnc3)ccc21)c1ccccc1 [Compound 112]

- IC50 [1, 5]: 500 nM
- IC50 [2, 6]: 350 nM
Compound: O=C1C(=O)N(Cc2ccc(I)cc2)c2ccc(-c3cccnc3)cc21 [Compound 121]

- IC50 [1, 5]: 4300 nM
- IC50 [2, 6]: 4400 nM
Compound: O=C1C(=O)N(Cc2ccccn2)c2ccc(-c3cccnc3)cc21 [Compound 103]

- IC50 [1, 7]: > 5000 nM
- IC50 [2, 8]: 2500 nM
Compound: CCCc1ccc2c(c1)C(=O)C(=O)N2CCCc1ccccc1 [Compound 20]

- IC50 [1, 7]: 2500 nM
- IC50 [2, 8]: 2900 nM
Compound: O=C1C(=O)N(CCCc2ccccc2)c2ccc(-c3ccsc3)cc21 [Compound 24]

- IC50 [1, 7]: > 5000 nM
- IC50 [2, 8]: > 5000 nM
Compound: CO/N=C1/C(=O)N(Cc2ccccc2)c2ccc(-c3cccnc3)cc21 [Compound 34]
